From patent publication US20200246316A1, “METHODS OF TREATING POST-SURGICAL PAIN WITH A THIAZOLINE ANTI-HYPERALGESIC AGENT” (CERSCI THERAPEUTICS, INC., priority 2019, published 2020)
Several values for one entry are separate records, joined by “and”; a condition that tells them apart may be missing. Equal entries are not always repeated. Entries after “also recorded” stand apart in the source; their conditions may differ. Structures can show the parent of a compound that is named as a salt. Where two headings read alike, the source gives them in different places.

Experiments:
pKa values = type: physicochemical
[1] = Dog single dose study, IV 10 mg/kg and oral 10 and 100 mg/kg; type: in vivo; settings: for peak plasma concentration: fasted
Procedure: In another study, Compound 1 was administered IV as a single dose to fasted beagle dogs at 10 mg/kg and orally at 10 and 100 mg/kg. Compound 1 was rapidly and well absorbed orally, within 1 hr, reaching peak plasma concentrations of 15 and 108 μg/mL at 10 and 100 mg/kg doses, respectively. The compound distributed readily in tissues with a moderate steady-state volume of distribution (0.3 L/kg).

MATE [2] = target: T1, MATE (Homo sapiens, UniProt Q96FL8); assay: Inhibition of uptake (SLC) transporters; type: in vitro ADME; settings: MATE1; HEK293 cells, probe [14C]-metformin (10 μM), pH 8.5, 0.3-600 μM tested
T1 construct: expressed in transfected cells; host or cells: HEK293 cells
T1 sequence (Q96FL8 whole entry): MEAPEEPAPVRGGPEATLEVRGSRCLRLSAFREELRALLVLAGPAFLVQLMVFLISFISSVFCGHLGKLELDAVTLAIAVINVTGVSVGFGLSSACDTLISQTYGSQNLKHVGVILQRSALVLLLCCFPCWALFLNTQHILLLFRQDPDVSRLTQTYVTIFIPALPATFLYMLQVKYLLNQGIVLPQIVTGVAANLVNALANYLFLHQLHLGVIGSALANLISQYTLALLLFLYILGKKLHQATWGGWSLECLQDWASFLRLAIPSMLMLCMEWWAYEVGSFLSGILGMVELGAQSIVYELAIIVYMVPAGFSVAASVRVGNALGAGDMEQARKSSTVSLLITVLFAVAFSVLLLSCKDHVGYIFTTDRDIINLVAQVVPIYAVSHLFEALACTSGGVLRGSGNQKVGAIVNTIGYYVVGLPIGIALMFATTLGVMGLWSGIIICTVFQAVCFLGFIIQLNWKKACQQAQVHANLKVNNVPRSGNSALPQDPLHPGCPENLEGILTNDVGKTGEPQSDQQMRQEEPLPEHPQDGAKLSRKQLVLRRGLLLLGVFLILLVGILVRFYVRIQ

MATE [3] = target: T2, MATE (Homo sapiens, UniProt Q86VL8); assay: Inhibition of uptake (SLC) transporters; type: in vitro ADME; settings: MATE2-K; HEK293 cells, probe [14C]-metformin (10 μM), pH 8.5, 0.3-600 μM tested
T2 construct: expressed in transfected cells; host or cells: HEK293 cells
T2 sequence (Q86VL8 1-566 isoform Q86VL8-3): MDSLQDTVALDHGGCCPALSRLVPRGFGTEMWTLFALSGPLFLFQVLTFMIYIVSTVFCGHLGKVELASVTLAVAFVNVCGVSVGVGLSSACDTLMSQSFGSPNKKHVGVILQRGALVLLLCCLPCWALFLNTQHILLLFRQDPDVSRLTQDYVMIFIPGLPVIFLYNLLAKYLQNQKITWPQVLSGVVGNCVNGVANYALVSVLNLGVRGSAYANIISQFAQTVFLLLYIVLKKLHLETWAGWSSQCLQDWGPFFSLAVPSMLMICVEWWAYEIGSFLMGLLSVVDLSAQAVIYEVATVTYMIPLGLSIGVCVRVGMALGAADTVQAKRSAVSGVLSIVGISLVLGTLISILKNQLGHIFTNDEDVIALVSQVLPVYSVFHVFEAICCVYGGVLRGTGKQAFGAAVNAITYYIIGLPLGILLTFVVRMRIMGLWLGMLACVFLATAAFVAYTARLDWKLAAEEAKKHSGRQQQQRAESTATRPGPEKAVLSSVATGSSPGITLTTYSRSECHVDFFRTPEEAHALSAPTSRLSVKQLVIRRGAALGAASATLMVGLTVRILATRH

[4] = Dog single oral dose MTD study; type: in vivo; settings: for concentration at 0.5 h / concentration at 1 h / concentration at 2 h: dog, plasma, N = 2, read-out: Average Compound 1 Concentration in dog plasma
Procedure: The objective of a third single dose study in dogs was to determine the maximum tolerated dose (MTD) of Compound 1 following a single oral (gavage) dose in male and female dogs. Using a pyramiding dose schedule, dose levels of 250, 350 and 500 mg/kg were administered to 2 dogs/sex (after a washout period of at least three days, the same animals were dosed with the next dose level). The dose volume was 10 mL/kg body weight. The vehicle was 0.5% aqueous HPMC.

[5] = test system: mouse model of severe incision; assay: Mouse model of severe incision; type: in vivo; settings: 10 mg/kg IP daily for 15 days; Days 1, 3, 6, 8, 10, 13, 15 and 21 after incision; FIG. 13; mono-hydrochloride
From the text: (§1) Two incisional pain models were used to assess Compound 1 effects on hyperalgesia. The first model is referred to as the Brennan model in which, under anesthesia, a 1 cm longitudinal incision to the skin and underlying fascia of a rat hindpaw is made. The second is a variation but is a more invasive procedure in which the skin and muscle are spread apart using forceps which creates a longer-lasting hypersensitivity.
In a mouse model of severe incision (tissue and muscle spread with forceps), animals were at baseline for mechanical thresholds prior to incision and then given a daily dose of Compound 1 (10 mg/kg IP) or vehicle for 15 days.

[6] = Rat single dose metabolism/excretion study (urine and feces)
[7] = Rat pharmacokinetics after single PO dose; settings: for Compound 1 Concentration in rat plasma: 100 mg/kg single PO, individual animals
Procedure: In both assays, a deuterated (Compound 1-d4) internal standard was used.
The objective of this non-GLP study was to determine the pharmacokinetics of Compound 1 after a single oral (gavage) dose in rats, and to determine if Compound 1 undergoes epimerization in the rat. Compound 1 was administered to CD® IGS [Crl:CD(SD)] (Sprague Dawley) rats (5/sex/group) as a single oral gavage dose of 100 mg/kg in a vehicle of 0.5% aqueous HPMC. Rats were dosed at a dose volume of 10 mL/kg body weight.

[8] = test system: lactoperoxidase oxidation (mediated by peroxide); assay: Lactoperoxidase oxidation (mediated by peroxide); type: biochemical; settings: physiological conditions (neutral pH)
From the text: (§2) In cell-based assays of PN-mediated cytotoxicity, Compound 1 is protective. […] Chemically, Compound 1 can also react stoichiometrically with peroxynitrite to form a para-nitro adduct. Without being bound by theory, by targeting and removing peroxynitrite and peroxide, Compound 1 can disrupt the ensuing cascades that lead to hypersensitivity (protein modification, ion channel hyperexcitation) thus providing a long duration event in terms of pain relief.

[9] = test system: established incision-induced mechanical hyperalgesia; assay: Brennan incisional pain model, treatment paradigm; type: in vivo, rat
From the text: as §1
Using the Brennan protocol and a treatment paradigm in rat, Compound 1 (10 and 30 mg/kg PO), morphine (3 mg/kg SC) or vehicle were administered daily at 24 h post-incision, and again at 48 and 72 h post-incision. Mechanical thresholds were obtained at 1 h and 2 h post-dose in all cohorts on all days.

[10] = Gravimetric Vapor Sorption (GVS); type: physicochemical
From the text: The sample is hygroscopic.

PN-mediated cytotoxicity = assay: Cell-based assays of PN-mediated cytotoxicity
From the text: as §2

[11] = female, 250 mg/kg PO (Dose 1; Day 1), F
[12] = female, 350 mg/kg PO (Dose 3; Day 9), F
[13] = female, 500 mg/kg PO (Dose 2; Day 4), F
[14] = male, 250 mg/kg PO (Dose 1; Day 1), M
[15] = male, 350 mg/kg PO (Dose 3; Day 9), M
[16] = male, 500 mg/kg PO (Dose 2; Day 4), M
[17] = female, Sprague Dawley (CD IGS, Crl:CD(SD)), rat, plasma, po, 100 mg/kg
[18] = male, Sprague Dawley, rat, plasma, po, 100 mg/kg

CC1(C)SC(Nc2ccccc2O)=N[C@@H]1C(=O)O [Compound 1, (R)-2-(2-hydroxyphenylamino)-5,5-dimethyl-4,5-dihydrothiazole-4-carboxylic acid mono-hydrochloride]
pKa (pKa values; Acidic (first)): 2.29 ± 0.02
pKa (pKa values; Acidic (second)): 10.24 ± 0.03
pKa (pKa values; Basic): 6.97 ± 0.01
peak plasma concentration ([1]; 10 mg/kg oral): 15 µg/mL
peak plasma concentration ([1]; 100 mg/kg oral): 108 µg/mL
bioavailability ([1]; beagle, dog, plasma, po, both 10 and 100 mg/kg doses): 75%
time to peak plasma concentration ([1]; oral, fasted beagle dogs): ≤ 1 h
IC50 (MATE [2]): > 600 µM
IC50 (MATE [3]): > 600 µM
concentration at 0.5 h [4, 11]: 28 µg/mL
concentration at 1 h [4, 11]: 54 µg/mL
concentration at 2 h [4, 11]: 46 µg/mL
concentration at 0.5 h [4, 12]: 67 µg/mL
concentration at 1 h [4, 12]: 154 µg/mL
concentration at 2 h [4, 12]: 119 µg/mL
concentration at 0.5 h [4, 13]: 87 µg/mL
concentration at 1 h [4, 13]: 136 µg/mL
concentration at 2 h [4, 13]: 124 µg/mL
concentration at 0.5 h [4, 14]: 71 µg/mL
concentration at 1 h [4, 14]: 110 µg/mL
concentration at 2 h [4, 14]: 91 µg/mL
concentration at 0.5 h [4, 15]: 134 µg/mL
concentration at 1 h [4, 15]: 220 µg/mL
concentration at 2 h [4, 15]: 153 µg/mL
concentration at 0.5 h [4, 16]: 111 µg/mL
concentration at 1 h [4, 16]: 191 µg/mL
concentration at 2 h [4, 16]: 193 µg/mL
emesis incidence ([4]; single dose 500 mg/kg): three of the four dosed animals
tolerability ([4]; single oral (gavage) dose 500 mg/kg): not tolerated
hyperalgesia [5]: protected from hyperalgesia; also recorded: did not experience hyperalgesia
administered compound recovered unchanged [6]: 5-15%
Compound 1 Concentration in rat plasma ([7]; Female, 0.5 h post-dose, mono-hydrochloride, 100 mg/kg): 36.4 µg/mL and 44.7 µg/mL and 43.2 µg/mL and 45.4 µg/mL
Compound 1 Concentration in rat plasma ([7]; Female, 1 h post-dose, mono-hydrochloride, 100 mg/kg): 50.1 µg/mL and 63.6 µg/mL and 63.2 µg/mL and 69.7 µg/mL
Compound 1 Concentration in rat plasma ([7]; Female, 2 h post-dose, mono-hydrochloride, 100 mg/kg): 63.1 µg/mL and 58.9 µg/mL and 60.1 µg/mL and 72.8 µg/mL
Compound 1 Concentration in rat plasma ([7]; Female, 4 h post-dose, mono-hydrochloride, 100 mg/kg): 14.4 μg/mL (2×) and 31.5 μg/mL and 32.4 μg/mL and 20.4 μg/mL
Compound 1 Concentration in rat plasma ([7]; Female, 8 h post-dose, mono-hydrochloride, 100 mg/kg): 1.78 µg/mL and 1.80 µg/mL and 4.14 µg/mL and 4.21 µg/mL and 2.23 µg/mL
Compound 1 Concentration in rat plasma ([7]; Female, 24 h post-dose, mono-hydrochloride, 100 mg/kg): 0.250 µg/mL and 0.240 µg/mL and 0.489 µg/mL and 0.482 µg/mL and 0.428 µg/mL
Compound 1 Concentration in rat plasma ([7]; Male, 0.5 h post-dose, mono-hydrochloride, 100 mg/kg): 17.5 µg/mL and 14.0 µg/mL and 11.4 µg/mL and 10.8 µg/mL
Compound 1 Concentration in rat plasma ([7]; Male, 1 h post-dose, mono-hydrochloride, 100 mg/kg): 14.3 µg/mL and 22.6 µg/mL and 14.8 µg/mL and 11.0 µg/mL and 11.8 µg/mL
Compound 1 Concentration in rat plasma ([7]; Male, 2 h post-dose, mono-hydrochloride, 100 mg/kg): 15.7 µg/mL and 14.0 µg/mL and 14.9 µg/mL and 10.7 µg/mL
Compound 1 Concentration in rat plasma ([7]; Male, 4 h post-dose, mono-hydrochloride, 100 mg/kg): 4.82 µg/mL and 13.9 µg/mL and 1.56 µg/mL and 6.65 µg/mL and 3.81 µg/mL
Compound 1 Concentration in rat plasma ([7]; Male, 8 h post-dose, mono-hydrochloride, 100 mg/kg): 2.81 µg/mL and 1.57 µg/mL and 1.53 µg/mL and 3.05 µg/mL
Compound 1 Concentration in rat plasma ([7]; Male, 24 h post-dose, mono-hydrochloride, 100 mg/kg): 0.157 μg/mL and BQL (3×) and 1.04 μg/mL
concentration at 0.5 h [7, 17]: 40.8 µg/mL
concentration at 2 h [7, 17]: 62.6 µg/mL
concentration at 8 h [7, 17]: 2.83 µg/mL
concentration at 24 h [7, 17]: 0.378 µg/mL
concentration at 0.5 h [7, 18]: 13.5 µg/mL
concentration at 4 h [7, 18]: 6.15 µg/mL
concentration at 8 h [7, 18]: 2.11 µg/mL
concentration at 24 h [7, 18]: 0.599 µg/mL
epimerization in vivo (chiral methods) ([7]; rat plasma, mono-hydrochloride): no epimerization; also recorded: did not provide any evidence of epimerization
removal of peroxynitrite in lactoperoxidase oxidation [8]: catalytically remove peroxynitrite
effect on established mechanical hyperalgesia (overall) ([9]; Compound 1 10 and 30 mg/kg PO daily, morphine 3 mg/kg SC, FIG. 12, mono-hydrochloride): prevented/reversed hyperalgesia completely; also recorded: reversed mechanical hyperalgesia
reversal of hyperalgesia ([9]; Day 1, 2-h time point, low-dose (10 mg/kg PO)): partial reversal
mechanical threshold ([9]; Day 1, 1 h post-dose, high-dose (30 mg/kg PO)): 26 g
mechanical threshold ([9]; Day 1, 2 h post-dose, high-dose (30 mg/kg PO)): 27 g
reversal of hyperalgesia ([9]; Day 2, 1 h and 2 h post-dosing, both 10 and 30 mg/kg PO cohorts): full reversal of hyperalgesia
mechanical threshold ([9]; Day 2 prior to dosing, high-dose (30 mg/kg PO)): 29 g
mechanical threshold ([9]; Day 2 prior to dosing, low-dose (10 mg/kg PO)): 26 g
hyperalgesia ([9]; Day 3 prior to dosing): did not show hyperalgesia
hygroscopicity ([10]; GVS): hygroscopic
GVS uptake ([10]; between 0% and 90% RH): 6%
protection from PN-mediated cytotoxicity (PN-mediated cytotoxicity): protective
